Data taken from patent US20250188095A1, “DISUBSTITUTED OCTAHYDROPYRROLO[3,4-c]PYRROLYL METHYL KETONE DERIVATIVE AND USE THEREOF” (JIANGSU NHWA PHARMACEUTICAL CO., LTD, priority 2022, published 2025).

Columns and labels:
OX2 receptor = OX2 receptor (Homo sapiens (Human), UniProt O43614); experiment: In vitro activity test (Cisbio IP-one, CHO-K1-OX2 cells, antagonism of EC80 agonist); format: cell-based
Experimental: (§1) (1) Preparation of a reaction buffer (1×Stimulation buffer) required for the experiment: The 5×Stimulation buffer and ddH2O in the Cisbio IP-one kit were diluted in a ratio of 1:4 for later use.
(§2) (2) Compound preparation: The compound was diluted with DMSO to obtain a 5 mM stock solution, followed by a 3.16-fold dilution to obtain 10 gradients, and then the prepared compound was diluted with the Stimulation buffer to the corresponding concentrations (4×) for later use.
(§3) (3) Cell preparation: CHO-K1-OX1 and CHO-K1-OX2 cells on the culture dish were digested with trypsin, and the cells were washed off with culture medium and collected into 5 mL centrifuge tubes. The cells were centrifuged at 1000 rpm for 5 min, and the supernatant was discarded. 3 mL of PBS was added, and the mixture was gently pipetted to be mixed well. The cells were centrifuged again at 1000 rpm for 5 min, and the supernatant was discarded. The cells were resuspended in 1×Stimulation buffer and counted using a Countstar cell counter, and the cell density was adjusted to 1.71×10^6 cells/mL for later use.
(§4) (4) Cell addition: The cell suspensions were added to assay plates at 7 μL/well (i.e., about 12,000 cells/well).
(§5) (5) Compound addition: The compound diluted with the Stimulation buffer was added to the assay plates described above at 3.5 μL/well.
(§6) (6) Reaction and incubation: After gentle shaking, the assay plates were incubated at 37° C. for 30 min.
(§7) (7) EC80 agonist addition: 4×Orexin A (OX1 receptor) and 4×Orexin 2 receptor agonist (OX2 receptor) solutions of EC80 were added at 3.5 μL/well.
(§8) (8) Reaction and incubation: After gentle shaking, the assay plates were incubated at 37° C. for 45 min.
(§9) (9) Detection reagent addition: IP1-d2 and Anti-IP1 cryptate were separately diluted in a 1:20 ratio with the Lysis & detection buffer in the Cisbio IP-one detection kit, and the diluted IP1-d2 and Anti-IP1 cryptate described above were added to the assay plates, each at 3 μL/well. After shaking, the assay plates were left to stand at room temperature for 60 min.
(§10) (10) Experimental readings: The plate was read on Envision, readings from the 665 nm and 615 nm channels were taken, and the ratio of 665 nm/615 nm readings was calculated.
(§11) Based on the antagonistic effect values of the compound sample at different concentration test points, antagonistic curves of the compound sample against the orexin receptors were fitted using GraphPad Prism software, and the IC50 was calculated.

OX1 receptor = OX1 receptor (Homo sapiens (Human), UniProt O43613); experiment: In vitro activity test (Cisbio IP-one, CHO-K1-OX1 cells, antagonism of EC80 Orexin A); format: cell-based
Sequence of OX1 receptor (O43613 whole entry): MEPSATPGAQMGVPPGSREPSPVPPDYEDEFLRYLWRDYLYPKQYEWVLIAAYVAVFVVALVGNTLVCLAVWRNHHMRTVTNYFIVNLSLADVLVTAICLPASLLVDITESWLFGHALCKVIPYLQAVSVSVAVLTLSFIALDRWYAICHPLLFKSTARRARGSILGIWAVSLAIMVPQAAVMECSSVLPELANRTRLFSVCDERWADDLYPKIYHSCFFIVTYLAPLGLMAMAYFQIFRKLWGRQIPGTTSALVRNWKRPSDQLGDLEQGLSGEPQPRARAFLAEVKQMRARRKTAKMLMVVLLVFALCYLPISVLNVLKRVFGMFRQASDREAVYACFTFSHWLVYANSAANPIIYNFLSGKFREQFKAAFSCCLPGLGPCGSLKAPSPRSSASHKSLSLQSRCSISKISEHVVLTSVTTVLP
Experimental: as §1, §2, §3, §4, §5, §6, §7, §8, §9, §10, §11

Sequence of OX2 receptor (O43614 whole entry): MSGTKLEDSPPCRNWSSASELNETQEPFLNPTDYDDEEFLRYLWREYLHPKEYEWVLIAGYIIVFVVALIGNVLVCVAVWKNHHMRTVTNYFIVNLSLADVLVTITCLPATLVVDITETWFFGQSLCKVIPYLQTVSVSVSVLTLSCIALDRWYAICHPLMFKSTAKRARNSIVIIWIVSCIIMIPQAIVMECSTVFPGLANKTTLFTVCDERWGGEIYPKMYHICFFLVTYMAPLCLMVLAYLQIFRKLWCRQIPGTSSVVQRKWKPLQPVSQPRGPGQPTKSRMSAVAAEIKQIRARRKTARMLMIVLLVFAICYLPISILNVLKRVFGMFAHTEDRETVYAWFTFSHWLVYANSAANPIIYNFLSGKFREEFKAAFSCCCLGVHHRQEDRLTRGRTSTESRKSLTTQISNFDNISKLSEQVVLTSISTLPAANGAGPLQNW

Structure (SMILES)	IC50 (OX2 receptor)	IC50 (OX1 receptor)
Cc1cc(C)nc(N2C[C@H]3CN(C(=O)c4c(-c5ccccc5)cn5ccccc45)C[C@H]3C2)n1 [Example 1, ((3aR,6aS)-5-(4,6-dimethylpyrimidin-2-yl)hexahydropyrrolo[3,4-c]pyrrol-2(1H)-yl)(2-phenylindolizin-1-yl)methanone]	100 to 300 nM	> 1000 nM
Cc1nc(N2C[C@H]3CN(C(=O)c4c(-c5ncccc5F)cn5ccccc45)C[C@H]3C2)nc2ccoc12 [Example 7, (2-(3-fluoropyridin-2-yl)indolizin-1-yl)((3aR,6aS)-5-(4-methylfuro [3,2-d]pyrimidin-2-yl)hexahydropyrrolo[3,4-c]pyrrol-2(1H)-yl)methanone]	< 100 nM	> 1000 nM
Cc1nc(N2C[C@H]3CN(C(=O)c4c(-c5ncccc5F)cn5ccccc45)C[C@H]3C2)nn2cccc12 [Example 8, (2-(3-Fluoropyridin-2-yl)indolizin-1-yl)((3aR,6aS)-5-(4-methylpyrrolo [2,1-f][1,2,4]triazin-2-yl)hexahydropyrrolo[3,4-c]pyrrol-2(1H)-yl)methanone]	< 100 nM	> 1000 nM
Cc1cc(C)nc(N2C[C@H]3CN(C(=O)c4c(-c5ccccc5F)cn5ccccc45)C[C@H]3C2)n1 [Example 15, ((3aR,6aS)-5-(4,6-dimethylpyrimidin-2-yl)hexahydropyrrolo[3,4-c]pyrrol-2(1H)-yl)(2-(2-fluorophenyl)indolizin-1-yl)methanone]	< 100 nM	> 1000 nM
Cc1cc(C)nc(N2C[C@H]3CN(C(=O)c4c(-c5ccsc5)cn5ccccc45)C[C@H]3C2)n1 [Example 17, ((3aR,6aS)-5-(4,6-dimethylpyrimidin-2-yl)hexahydropyrrolo[3,4-c]pyrrol-2(1H)-yl)(2-(thiophen-3-yl)indolizin-1-yl)methanone]	< 100 nM	–
Cc1cc(C)nc(N2C[C@H]3CN(C(=O)c4c(-c5ncccn5)cn5ccccc45)C[C@H]3C2)n1 [Example 21, ((3aR,6aS)-5-(4,6-dimethylpyrimidin-2-yl)hexahydropyrrolo[3,4-c]pyrrol-2(1H)-yl)(2-(pyrimidin-2-yl)indolizin-1-yl)methanone]	< 100 nM	> 1000 nM
Cc1nc(N2C[C@H]3CN(C(=O)c4c(-c5ccccn5)cn5ccccc45)C[C@H]3C2)nc(C)c1F [Example 24, ((3aR,6aS)-5-(5-fluoro-4,6-dimethylpyrimidin-2-yl)hexahydropyrrolo [3,4-c]pyrrol-2(1H)-yl)(2-(pyridin-2-yl)indolizin-1-yl)methanone]	< 100 nM	> 1000 nM
Cc1nc(N2C[C@H]3CN(C(=O)c4c(-c5ncccc5F)cn5ccccc45)C[C@H]3C2)nc2c1CCC2 [Example 26, (2-(3-fluoropyridin-2-yl)indolizin-1-yl)((3aR,6aS)-5-(4-methyl-6,7-dihydro-5H-cyclopenta[d]pyrimidin-2-yl)hexahydropyrrolo[3,4-c]pyrrol-2(1H)-yl)methanone]	< 100 nM	> 1000 nM
Cc1cc(C)nc(N2C[C@H]3CN(C(=O)c4c(-c5cccs5)cn5ccccc45)C[C@H]3C2)n1 [Example 28]	< 100 nM	> 1000 nM

The next lines start with the values.

IC50 (OX2 receptor)	IC50 (OX1 receptor)	Structure (SMILES)
100 to 300 nM	> 1000 nM	Cc1cc(C)nc(N2C[C@H]3CN(C(=O)c4c(-c5ccccn5)cn5ccccc45)C[C@H]3C2)n1 [Example 2, ((3aR,6aS)-5-(4,6-dimethylpyrimidin-2-yl)hexahydropyrrolo[3,4-c]pyrrol-2(1H)-yl)(2-(pyridin-2-yl)indolizin-1-yl)methanone]
< 100 nM	> 1000 nM	Cc1cc(C)nc(N2C[C@H]3CN(C(=O)c4c(-c5ccc(C)s5)cn5ccccc45)C[C@H]3C2)n1 [Example 4, ((3aR,6aS)-5-(4,6-dimethylpyrimidin-2-yl)hexahydropyrrolo[3,4-c]pyrrol-2(1H)-yl)(2-(5-methylthiophen-2-yl)indolizin-1-yl)methanone]
< 100 nM	> 1000 nM	Cc1cc(C)nc(N2C[C@H]3CN(C(=O)c4c(-c5ccccn5)nn5ccccc45)C[C@H]3C2)n1 [Example 6, ((3aR,6aS)-5-(4,6-dimethylpyrimidin-2-yl)hexahydropyrrolo[3,4-c]pyrrol-2(1H)-yl)(2-(pyridin-2-yl)pyrazolo[1,5-a]pyridin-3-yl)methanone]
100 to 300 nM	> 1000 nM	Cc1cc(C)nc(N2C[C@H]3CN(C(=O)c4c(-c5nccs5)cn5ccccc45)C[C@H]3C2)n1 [Example 9, ((3aR,6aS)-5-(4,6-dimethylpyrimidin-2-yl)hexahydropyrrolo[3,4-c]pyrrol-2(1H)-yl)(2-(thiazol-2-yl)indolizin-1-yl)methanone]
100 to 300 nM	> 1000 nM	O=C(c1c(-c2ncccc2F)cn2ccccc12)N1C[C@@H]2CN(c3cnc4ccccc4n3)C[C@@H]2C1 [Example 10, (2-(3-Fluoropyridin-2-yl)indolizin-1-yl)((3aR,6aS)-5-(quinoxalin-2-yl)hexahydropyrrolo[3,4-c]pyrrol-2(1H)-yl)methanone]
100 to 300 nM	> 1000 nM	Cc1cc(C)nc(N2C[C@H]3CN(C(=O)c4c(-c5ncccc5C(F)(F)F)cn5ccccc45)C[C@H]3C2)n1 [Example 11, ((3aR,6aS)-5-(4,6-dimethylpyrimidin-2-yl)hexahydropyrrolo[3,4-c]pyrrol-2(1H)-yl)(2-(3-(trifluoromethyl)pyridin-2-yl)indolizin-1-yl)methanone]
100 to 300 nM	> 1000 nM	Cc1cc(C)nc(N2C[C@H]3CN(C(=O)c4c(-c5ccccc5)nn5cccnc45)C[C@H]3C2)n1 [Example 12, ((3aR,6aS)-5-(4,6-dimethylpyrimidin-2-yl)hexahydropyrrolo[3,4-c]pyrrol-2(1H)-yl)(2-phenylpyrazolo[1,5-a]pyrimidin-3-yl)methanone]
100 to 300 nM	> 1000 nM	Cc1cc(C)nc(N2C[C@H]3CN(C(=O)c4c(-c5ccccc5)nn5ccncc45)C[C@H]3C2)n1 [Example 13, ((3aR,6aS)-5-(4,6-dimethylpyrimidin-2-yl)hexahydropyrrolo[3,4-c]pyrrol-2(1H)-yl)(2-phenylpyrazolo[1,5-a]pyrazin-3-yl)methanone]
100 to 300 nM	> 1000 nM	Cc1cc(C)nc(N2C[C@H]3CN(C(=O)c4c(-c5ccccc5)nn5ncccc45)C[C@H]3C2)n1 [Example 14, ((3aR,6aS)-5-(4,6-dimethylpyrimidin-2-yl)hexahydropyrrolo[3,4-c]pyrrol-2(1H)-yl)(2-phenylpyrazolo[1,5-b]pyridazin-3-yl)methanone]
< 100 nM	> 1000 nM	Cc1cc(C)nc(N2C[C@H]3CN(C(=O)c4c(-c5ncccc5F)cn5cc(F)ccc45)C[C@H]3C2)n1 [Example 18, ((3aR,6aS)-5-(4,6-dimethylpyrimidin-2-yl)hexahydropyrrolo[3,4-c]pyrrol-2(1H)-yl)(6-fluoro-2-(3-fluoropyridin-2-yl)indolizin-1-yl)methanone]
< 100 nM	> 1000 nM	Cc1cc(C)nc(N2C[C@H]3CN(C(=O)c4c(-c5ccccn5)cn5cc(F)ccc45)C[C@H]3C2)n1 [Example 19, ((3aR,6aS)-5-(4,6-dimethylpyrimidin-2-yl)hexahydropyrrolo[3,4-c]pyrrol-2(1H)-yl)(6-fluoro-2-(pyridin-2-yl)indolizin-1-yl)methanone]
< 100 nM	> 1000 nM	Cc1cc(C)nc(N2C[C@H]3CN(C(=O)c4c(-c5ncco5)cn5ccccc45)C[C@H]3C2)n1 [Example 20, ((3aR,6aS)-5-(4,6-dimethylpyrimidin-2-yl)hexahydropyrrolo[3,4-c]pyrrol-2(1H)-yl)(2-(oxazol-2-yl)indolizin-1-yl)methanone]
